Test results as given in US8697727B2, “N-substituted-heterocycloalkyloxybenzamide compounds and methods of use” (Rigel Pharmaceuticals, Inc., priority 2006, dated 2014).

Tested on: AMPK
Assay: AMPK activation, enzyme-linked immunosorbent assay
Assay type: cell-based
Procedure, shortened: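 Each compound's EC50 for AMPK activation was the endpoint. In a cell-based assay, AMPK activity was read out as the relative concentration of phosphorylated acetyl-CoA carboxylase, a product of AMPK, measured by enzyme-linked immunosorbent assay. Values fell into the ranges less than 1 μM, 1-10 μM, 10-20 μM, 20-50 μM, 50-100 μM, and >100 μM.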

With `Cn1cncc1CN1CCC(Oc2ccc(C(=O)NC3CCN(Cc4ccccc4)CC3)cc2)CC1` [Compound 4, N-(1-benzylpiperidin-4-yl)-4-(1-((l-methyl-1H-imidazol-5-yl)methyl)piperidin-4-yloxy)benzamide] as the molecule, how does the EC50 read?
Its EC50 is over 100000 nM.

For `CC(C)(C)OC(=O)N1CCC(NC(=O)c2ccc(OC3CCN(Cc4ccc(C#N)cc4)CC3)cc2)CC1` [Compound 78, tert-butyl 4-(4-(1-(4-cyanobenzyl)piperidin-4-yloxy)benzamido)piperidine-1-carboxylate], which EC50 is on record?
The EC50 was under 1000 nM.

Which EC50 does the source give for `O=C(NC1CCN(Cc2ccccc2)CC1)c1cc(Cl)c(OC2CCN(Cc3ccc(F)c(F)c3)CC2)c(Cl)c1` [Compound 76, N-(1-benzylpiperidin-4-yl)-3,5-dichloro-4-(1-(3,4-difluorobenzyl)piperidin-4-yloxy)benzamide] here?
Its EC50 is under 1000 nM.

Which EC50 does the source give for `O=C(NC1CCN(Cc2ccccc2)CC1)c1ccc(OC2CCN(Cc3ccc(Cl)c(Cl)c3)CC2)c(F)c1` [Compound 82, N-(1-benzylpiperidin-4-yl)-4-(1-(3,4-dichlorobenzyl)piperidin-4-yloxy)-3-fluorobenzamide] here?
The EC50 was under 1000 nM.

With `O=C(NC1CCN(Cc2ccccc2)CC1)c1cccc(OC2CCN(c3ccc(C(F)(F)F)cc3)CC2)c1` [Compound 46, N-(1-benzylpiperidin-4-yl)-3-(1-(4-(trifluoromethyl)phenyl)piperidin-4-yloxy)benzamide] as the molecule, how does the EC50 read?
Its EC50 is under 1000 nM.

`O=C(NC1CCN(Cc2ccccc2)CC1)c1ccc(OC2CCN(Cc3ccccc3C(F)(F)F)CC2)c(Cl)c1` [Compound 24, N-(1-benzylpiperidin-4-yl)-3-chloro-4-(1-(2-(trifluoromethyl)benzyl)piperidin-4-yloxy)benzamide] was tested. Which EC50 did it give?
Its EC50 is 10000 to 20000 nM.

Which EC50 does the source give for `O=C(NC1CCN(Cc2ccc(F)cc2)CC1)c1ccc(OC2CCN(Cc3ccc(Cl)cc3)CC2)c(Cl)c1` [Compound 66, 3-chloro-4-(1-(4-chlorobenzyl)piperidin-4-yloxy)-N-(1-(4-fluorobenzyl)piperidin-4-yl)benzamide] here?
The EC50 was under 1000 nM.

With `CC(C)(C)OC(=O)N1CCC(NC(=O)c2ccc(OC3CCN(c4ccc(C(F)(F)F)cc4)CC3)c(F)c2)CC1` [Compound 26, tert-butyl 4-(3-fluoro-4-(1-(4-(trifluoromethyl)phenyl)piperidin-4-yloxy)benzamido)piperidine-1-carboxylate] as the molecule, how does the EC50 read?
Its EC50 is under 1000 nM.

`N#Cc1ccc(CN2CCC(Oc3ccc(C(=O)NC4CCN(Cc5ccccc5)CC4)cc3Cl)CC2)cc1` [Compound 67, N-(1-benzylpiperidin-4-yl)-3-chloro-4-(1-(4-cyanobenzyl)piperidin-4-yloxy)benzamide] was tested. Which EC50 did it give?
Its EC50 is under 1000 nM.

`O=C(NC1CCN(C(=O)c2ccc(F)cc2)CC1)c1ccc(OC2CCN(c3ccc(C(F)(F)F)cc3)CC2)c(F)c1` [Compound 31, 3-fluoro-N-(1-(4-fluorobenzoyl)piperidin-4-yl)-4-(1-(4-(trifluoromethyl)phenyl)piperidin-4-yloxy)benzamide] was tested. Which EC50 did it give?
The EC50 was under 1000 nM.

Which EC50 does the source give for `N#Cc1ccc(CN2CCC(Oc3ccc(C(=O)NC4CCN(Cc5ccccn5)CC4)cc3)CC2)cc1` [Compound 85, 4-(1-(4-cyanobenzyl)piperidin-4-yloxy)-N-(1-(pyridin-2-ylmethyl)piperidin-4-yl)benzamide] here?
Its EC50 is under 1000 nM.

For `O=C(NC1CCN(Cc2ccccc2)CC1)c1ccc(OC2CCN(c3ccco3)CC2)c(Cl)c1` [Compound 11, N-(1-benzylpiperidin-4-yl)-3-chloro-4-(1-(furan-2-yl)piperidin-4-yloxy)benzamide], which EC50 is on record?
Its EC50 is 1000 to 10000 nM.

Which EC50 does the source give for `O=C(NC1CCN(Cc2ccc(Cl)cc2)CC1)c1ccc(OC2CCN(Cc3ccc(Cl)c(Cl)c3)CC2)c(F)c1` [Compound 80, N-(1-(4-chlorobenzyl)piperidin-4-yl)-4-(1-(3,4-dichlorobenzyl)piperidin-4-yloxy)-3-fluorobenzamide] here?
Its EC50 is under 1000 nM.

How did the EC50 turn out when `CC(c1ccccc1)N1CCC(Oc2ccc(C(=O)NC3CCN(Cc4ccccc4)CC3)cc2F)CC1` (stereo not drawn) [Compound 21, N-(1-benzylpiperidin-4-yl)-3-fluoro-4-(1-(1-phenylethyl)piperidin-4-yloxy)benzamide] was run?
Its EC50 is 1000 to 10000 nM.

How did the EC50 turn out when `O=C(NC1CCN(Cc2ccccc2)CC1)c1ccc(OC2CCN(Cc3ccccc3)CC2)c(Cl)c1` [Compound 14, N-(1-benzylpiperidin-4-yl)-4-(1-benzylpiperidin-4-yloxy)-3-chlorobenzamide] was run?
Its EC50 is under 1000 nM.

Which EC50 does the source give for `COC(=O)c1ccc(CN2CCC(NC(=O)c3ccc(OC4CCN(c5ccc(C(F)(F)F)cc5)CC4)c(F)c3)CC2)cc1` [Compound 33, methyl 4-((4-(3-fluoro-4-(1-(4-(trifluoromethyl)phenyl)piperidin-4-yloxy)benzamido)piperidin-1-yl)methyl)benzoate] here?
The EC50 was under 1000 nM.

Which EC50 does the source give for `N#Cc1ccc(CN2CCC(Oc3ccc(C(=O)NC4CCN(Cc5ccncc5)CC4)cc3)CC2)cc1` [Compound 83, 4-(1-(4-cyanobenzyl)piperidin-4-yloxy)-N-(1-(pyridin-4-ylmethyl)piperidin-4-yl)benzamide] here?
The EC50 was under 1000 nM.

For `O=C(NC1CCN(Cc2ccccc2)CC1)c1ccc(OC2CCN(Cc3ccc(OC(F)(F)F)cc3)CC2)c(Cl)c1` [Compound 54, N-(1-benzylpiperidin-4-yl)-3-chloro-4-(1-(4-(trifluoromethoxy)benzyl)piperidin-4-yloxy)benzamide], which EC50 is on record?
The EC50 was under 1000 nM.

With `COc1cc(C(=O)NCCCN2CCOCC2)ccc1OC1CCN(Cc2ccc(Cl)cc2)CC1` [Compound 98] as the molecule, how does the EC50 read?
Its EC50 is 1000 to 10000 nM.

For `Cc1ccc(CN2CCC(Oc3ccc(C(=O)NC4CCN(Cc5ccccc5)CC4)cc3F)CC2)cc1` [Compound 42, N-(1-benzylpiperidin-4-yl)-3-fluoro-4-(1-(4-methylbenzyl)piperidin-4-yloxy)benzamide], which EC50 is on record?
The EC50 was under 1000 nM.

For `N#Cc1ccc(N2CCC(Oc3ccc(C(=O)NC4CCN(Cc5ccccc5)CC4)c(Cl)c3)CC2)cc1` [Compound 49, N-(1-benzylpiperidin-4-yl)-2-chloro-4-(1-(4-cyanophenyl)piperidin-4-yloxy)benzamide], which EC50 is on record?
The EC50 was under 1000 nM.

For `O=C(NC1CCN(Cc2ccccc2)CC1)c1ccc(OC2CCN(Cc3ccc(F)cc3)CC2)c(F)c1` [Compound 61, N-(1-benzylpiperidin-4-yl)-3-fluoro-4-(1-(4-fluorobenzyl)piperidin-4-yloxy)benzamide], which EC50 is on record?
The EC50 was under 1000 nM.

How did the EC50 turn out when `O=C(NC1CCN(Cc2ccccc2)CC1)c1cc(Cl)c(OC2CCN(Cc3ccc(Cl)cc3)CC2)c(Cl)c1` [Compound 75, N-(1-benzylpiperidin-4-yl)-3,5-dichloro-4-(1-(4-chlorobenzyl)piperidin-4-yloxy)benzamide] was run?
The EC50 was under 1000 nM.

Which EC50 does the source give for `N#Cc1ccc(CN2CCC(Oc3ccc(C(=O)NC4CCNCC4)cc3)CC2)cc1` [Compound 79, 4-(1-(4-cyanobenzyl)piperidin-4-yloxy)-N-(piperidin-4-yl)benzamide] here?
The EC50 was over 100000 nM.

`O=C(NC1CCN(Cc2ccccc2)CC1)c1ccc(OC2CCN(Cc3ccc(F)c(F)c3)CC2)c(F)c1` [Compound 69, N-(1-benzylpiperidin-4-yl)-4-(1-(3,4-difluorobenzyl)piperidin-4-yloxy)-3-fluorobenzamide] was tested. Which EC50 did it give?
The EC50 was under 1000 nM.

For `O=C(c1ccc(OC2CCN(Cc3ccccc3)CC2)cc1)N1CCN(Cc2ccccn2)CC1` [Compound 105, (4-(1-benzylpiperidin-4-yloxy)phenyl)(4-(pyridin-2-ylmethyl)piperazin-1-yl)methanone], which EC50 is on record?
The EC50 was 10000 to 20000 nM.

How did the EC50 turn out when `O=C(NC1CCN(Cc2cccnc2)CC1)c1ccc(OC2CCN(c3ccc(C(F)(F)F)cc3)CC2)c(F)c1` [Compound 29, 3-fluoro-N-(1-(pyridin-3-ylmethyl)piperidin-4-yl)-4-(1-(4-(trifluoromethyl)phenyl)piperidin-4-yloxy)benzamide] was run?
Its EC50 is under 1000 nM.

For `O=C(NC1CCN(Cc2ccccc2)CC1)c1ccc(OC2CCN(Cc3cccc(C(F)(F)F)c3)CC2)c(F)c1` [Compound 59, N-(1-benzylpiperidin-4-yl)-3-fluoro-4-(1-(3-(trifluoromethyl)benzyl)piperidin-4-yloxy)benzamide], which EC50 is on record?
Its EC50 is under 1000 nM.

How did the EC50 turn out when `O=C(NC1CCN(Cc2ccccc2)CC1)c1ccc(OC2CCN(Cc3ccc(F)cc3)CC2)c(Cl)c1` [Compound 19, N-(1-benzylpiperidin-4-yl)-3-chloro-4-(1-(4-fluorobenzyl)piperidin-4-yloxy)benzamide] was run?
The EC50 was under 1000 nM.

Which EC50 does the source give for `O=C(NC1CCN(Cc2ccccc2)CC1)c1ccc(OC2CCN(c3ccc(C(F)(F)F)cc3)CC2)c(F)c1` [Compound 23, N-(1-benzylpiperidin-4-yl)-3-fluoro-4-(1-(4-(trifluoromethyl)phenyl)piperidin-4-yloxy)benzamide] here?
The EC50 was under 1000 nM.

`Cn1cncc1CN1CCC(Oc2ccc(C(=O)NC3CCN(Cc4ccccc4)CC3)cc2Cl)CC1` [Compound 5, N-(1-benzylpiperidin-4-yl)-3-chloro-4-(1-((l-methyl-1H-imidazol-5-yl)methyl)piperidin-4-yloxy)benzamide] was tested. Which EC50 did it give?
The EC50 was 50000 to 100000 nM.

For `CC(C)(C)OC(=O)NCCCNC(=O)c1ccc(OC2CCN(Cc3ccccc3)CC2)c(Cl)c1` [Compound 102, tert-butyl 3-(4-(1-benzylpiperidin-4-yloxy)-3-chlorobenzamido)propylcarbamate], which EC50 is on record?
The EC50 was 10000 to 20000 nM.

How did the EC50 turn out when `COc1cc(C(=O)NC2CCN(Cc3ccccc3)CC2)ccc1OC1CCN(c2cccs2)CC1` [Compound 8, N-(1-benzylpiperidin-4-yl)-3-methoxy-4-(1-(thiophen-2-yl)piperidin-4-yloxy)benzamide] was run?
Its EC50 is 1000 to 10000 nM.

How did the EC50 turn out when `COc1cc(C(=O)NC2CCN(Cc3ccccc3)CC2)ccc1OC1CCN(CCCc2ccccc2)CC1` [Compound 7, N-(1-benzylpiperidin-4-yl)-3-methoxy-4-(1-(3-phenylpropyl)piperidin-4-yloxy)benzamide] was run?
The EC50 was under 1000 nM.

For `N#Cc1ccc(CN2CCC(Oc3ccc(C(=O)NC4CCN(Cc5ccccc5)CC4)c(Cl)c3)CC2)cc1` [Compound 51, N-(1-benzylpiperidin-4-yl)-2-chloro-4-(1-(4-cyanobenzyl)piperidin-4-yloxy)benzamide], which EC50 is on record?
The EC50 was under 1000 nM.

For `COc1ccc(CN2CCC(Oc3ccc(C(=O)NCCCNC(=O)OC(C)(C)C)cc3Cl)CC2)cc1` [Compound 97, tert-butyl 3-(3-chloro-4-(1-(4-methoxybenzyl)piperidin-4-yloxy)benzamido)propylcarbamate], which EC50 is on record?
The EC50 was 1000 to 10000 nM.
